Test results: publication PMC9919490, “Synthesis and Biological Evaluation of Novel Dispiro-Indolinones with Anticancer Activity” (Molecules, 2023)

Legend:
[1] = set-up: method as in PMID 25384157; settings: rats; cited from earlier work
[2] = tested on: LNCaP cells; experiment: MTT cytotoxicity assay, LNCaP (p53 pos); assay type: cell-based; settings: 48 h
Description: (§1) The synthesized compounds were tested for their ability to block the proliferation of the selected model cell lines: LNCaP (p53+), PC3 (p53-), HCT^wt (p53+), and HCT^−/− (p53-) cells. The assay was carried out using the standard MTT (3-(4,5-dimethylthiazol-2-yl)2,5-diphenyl tetrazolium bromide) assay based on the modified approach reported by Ferrari and colleagues. […] Differences in IC50 values against these cell lines were used to assess the selectivity of the compounds.
(§2) Model cell lines were purchased from the in stock collection of the N.N. Blokhin Russian Cancer Research Center (RAMS). Cells were accurately maintained in the recommended media, supplemented with 10% heat-inactivated FBS (Invitrogen) and 2 mmol/L L-glutamine (Invitrogen).
(§3) First, 4000 cells per well were plated out in 140 µL of DMEM (with 10% FBS) in 96-well plates and incubated in 5% CO2 for 24 h at 37 °C without treatment. […] The cells were treated for 48 h with […] (eight dilutions) concentrations of the substances (each in triplicate) or doxorubicin (0.3 nM–600 nM, eight dilutions) as a control substance. After the incubation, 15 µL of MTT solution in PBS (5 mg/mL) was added, and the cells were incubated for 2 h, followed by removal of the media and addition of 120 µL of DMSO. […] Cell survival rates were determined by the comparison of optical density with the corresponding untreated control cell culture. Dose-dependent curves and the corresponding IC50 values were calculated using “GraphPad Prism 6” software (GraphPad Software, Inc., San Diego, CA, USA).

[3] = tested on: HCT^−/− cells; experiment: MTT cytotoxicity assay, HCT^−/− (p53 neg); assay type: cell-based; settings: 48 h
Description: as §1, §2, §3

[4] = tested on: HCT116wt; experiment: Mechanism of cell death, flow cytometry 7AAD/annexin V, HCT116wt; assay type: cell-based; settings: 7AAD/annexin V staining
[5] = tested on: PC3 cells; experiment: MTT cytotoxicity assay, PC3 (p53 neg); assay type: cell-based; settings: 48 h
Description: as §1, §2, §3

[6] = tested on: HCT116p53−/−; experiment: Mechanism of cell death, flow cytometry 7AAD/annexin V, HCT116p53−/−; assay type: cell-based; settings: 7AAD/annexin V staining
[7] = tested on: HCT^wt cells; experiment: MTT cytotoxicity assay, HCT^wt (p53 pos); assay type: cell-based; settings: 48 h
Description: as §1, §2, §3

[8] = tested on: PC3; experiment: Mechanism of cell death, flow cytometry 7AAD/annexin V, PC3; assay type: cell-based; settings: 7AAD/annexin V staining
[9] = tested on: p53, PUMA, CASPASE-3 in HCTwt cells; experiment: Western blot, p53 and p53-dependent apoptosis proteins; assay type: cell-based; settings: HCTwt cell culture, increasing concentration; nutlin-3a 20 µM positive control
Description: To verify the mechanism of cytotoxic action of the synthesized dispiro-indolinones, Western blot testing of dispiro-indolinone 29 was performed using the p53-expressing HCTwt and LNCaP cell lines. Both the p53 protein and the proteins involved in the p53-dependent process of apoptosis (i.e., BAX, NOXA, and PUMA) were determined. For comparison, similar testing was carried out for a cell line not expressing p53 (HCT^(−/−)).

[10] = tested on: MDM2; settings: binding to MDM2; cited from earlier work
[11] = tested on: HCT116; settings: dye assay, sulforhodamine B; cited from earlier work
[12] = tested on: PC3 cells; set-up: method as in earlier work; settings: dye assay with sulforhodamine B; cited from earlier work
[13] = tested on: LNCaP; settings: MTT assay; cited from earlier work

| SMILES | oral bioavailability [1] [%] | IC50 [2] [µM] | IC50 [3] [µM] | mechanism of cell death [4] | IC50 [5] [µM] | mechanism of cell death [6] | IC50 [7] [µM] | mechanism of cell death [8] | concentration / expression of the p53 protein [9] | IC50 [10] [µM] | CC50 [11] [µM] | CC50 [12] [µM] | CC50 [13] [µM] |
| --- | --- | --- | --- | --- | --- | --- | --- | --- | --- | --- | --- | --- | --- |
| CC[C@@H]([C@H](C)O)N1C(=O)[C@@](C)(CC(=O)O)C[C@H](c2cccc(Cl)c2)[C@H]1c1ccc(Cl)cc1 [AM-8553] | 100 | – | – | – | – | – | – | – | – | – | – | – | – |
| CN1C[C@H](c2ccc(Cl)cc2)[C@]2(NC(=S)N(c3ccccc3)C2=O)[C@]12C(=O)Nc1ccc(Br)cc12 (racemic) [Compound 13] | – | 1.2 ± 0.6 | > 100 | early apoptosis | 11.3 ± 1.2 | necrosis/late apoptosis | 3.5 ± 1.2 | early apoptosis | – | – | – | – | – |
| COc1ccc(C2=N[C@@H](c3ccc(Cl)cc3)[C@@H](c3ccc(Cl)cc3)N2C(=O)N2CCNC(=O)C2)c(OC(C)C)c1 [Nutlin-3a, reference compound] | – | – | […] | – | 28.9 ± 3.7 | – | 4.5 ± 1.3 | – | […] | […] | 4.63 ± 0.78 | […] | 1.5 |
